From ChEMBL document CHEMBL3785074, “Molecular modeling and snake venom phospholipase A2 inhibition by phenolic compounds: Structure-activity relationship” (Eur J Med Chem, 2016)
Active and inactive are the calls of the source. The calls are words filed in the database; no cut-off is given here.

Legend:
[1] = Protective activity against Daboia russellii venom-induced hemorrhage in intradermally dosed Swiss albino mouse at 100 mmol assessed as hemorhagic lesion by measuring minimal […] dose preincubated with venom for 1 hr followed by administration to mouse measured after 24 hrs (reference value: 5 ug); type: functional, Daboia russelii
[2] = Protective activity against Daboia russellii venom-induced hemorrhage in intradermally dosed Swiss albino mouse at 100 mmol assessed as hemorhagic lesion preincubated with venom for 1 hr followed by administration to mouse measured after 24 hrs relative to untreated control; type: functional, Daboia russelii
[3] = tested on: Daboia russelii; experiment: (§1) Protective activity against Daboia russellii venom-induced mortality in Swiss albino mouse at 100 mmol, iv by measuring venom LD50 administered immediately after venom injection measured after 24 hrs (reference value: 2.28ug); type: functional
[4] = tested on: Daboia russelii; experiment: (§2) Protective activity against Daboia russellii venom-induced hemorrhage in Swiss albino mouse at 100 mmol, iv assessed as hemorhagic lesion by measuring […] administered immediately after venom injection measured after 24 hrs (Rvb =5 ug); type: functional
[5] = tested on: Daboia russelii
[6] = tested on: Naja kaouthia
[7] = tested on: Naja kaouthia; remark: listed apart in the source
Description: Protective activity against Naja kaouthia venom-induced mortality in Swiss albino mouse at 100 mmol, iv by measuring venom LD50 administered immediately after venom injection measured after 24 hrs (Rvb = 2.82 ug)

[8] = Protective activity against Daboia russellii venom-induced mortality by measuring venom LD50 in Swiss albino mouse at 100 mmol, iv preincubated with venom for 1 hr followed by administration to mouse measured after 24 hrs (reference value: 2.28 ug); type: functional, Daboia russelii
[9] = Protective activity against Daboia russellii venom-induced mortality in Swiss albino mouse at 100 mmol, iv preincubated with venom for 1 hr followed by administration to mouse measured after 24 hrs relative to untreated control; type: functional, Daboia russelii
[10] = Protective activity against Naja kaouthia venom-induced mortality in Swiss albino mouse at 100 mmol, iv by measuring venom LD50 preincubated with venom for 1 hr followed by administration to mouse measured after 24 hrs (reference value: 2.82 ug); type: functional
[11] = Protective activity against Naja kaouthia venom-induced mortality in Swiss albino mouse at 100 mmol, iv preincubated with venom for 1 hr followed by administration to mouse measured after 24 hrs relative to untreated control; type: functional
[12] = Lipophilicity, log P of compound; type: physicochemical; conditions: octanol/water; read-out: logP
[13] = as §1; type: functional, Daboia russelii
[14] = Protective activity against Daboia russellii venom-induced mortality in Swiss albino mouse at 100 mmol, iv administered immediately after venom injection measured after 24 hrs relative to untreated control; type: functional, Daboia russelii
[15] = as §2; type: functional, Daboia russelii
[16] = Protective activity against Daboia russellii venom-induced hemorrhage in Swiss albino mouse at 100 mmol, iv assessed as hemorhagic lesion administered immediately after venom injection measured after 24 hrs relative to untreated control; type: functional, Daboia russelii
[17] = Protective activity against Naja kaouthia venom-induced mortality in Swiss albino mouse at 100 mmol, iv by measuring venom LD50 administered immediately after venom injection measured after 24 hrs (reference value: 2.82 ug); type: functional
[18] = Protective activity against Naja kaouthia venom-induced mortality in Swiss albino mouse at 100 mmol, iv administered immediately after venom injection measured after 24 hrs relative to untreated control; type: functional
[19] = tested on: Daboia russelii; experiment: Protective activity against Daboia russellii venom-induced mortality in iv dosed Swiss albino mouse administered immediately after venom injection relative to untreated control; type: functional, organism-based
[20] = Protective activity against Daboia russellii venom-induced mortality in iv dosed Swiss albino mouse administered 30 mins after venom injection relative to untreated control; type: functional, Daboia russelii

Row | Structure (SMILES) | MHC [1] [µg] | fold change (FC) [2] | LD50 [3] | MHC [4] | LD50 [5] | LD50 [6] | LD50 [7] | LD50 [8] [µg] | fold change (FC) [9] | LD50 [10] [µg] | fold change (FC) [11] | logP [12] | LD50 [13] [µg] | fold change (FC) [14] | MHC [15] [µg] | fold change (FC) [16] | LD50 [17] [µg] | fold change (FC) [18] | Activity [19] | Activity [20] [%]
1 | CCCOc1ccc(C=O)c(O)c1 | 5 | 1 | inactive | inactive | inactive | inactive | inactive | – | – | – | – | – | – | – | – | – | – | – | – | –
2 | O=Cc1cc(O)ccc1O | 35 | 7 | – | – | – | – | inactive | 5 | 2.1 | 3 | 1 | 1.53 | 50 | 1.25 | 15 | 3 | – | – | – | –
3 | COc1cccc(OC)c1 [1,3-DIMETHOXYBENZENE] | 10 | 2 | inactive | – | inactive | inactive | inactive | – | – | – | – | 1.44 | – | – | 5 | 1 | – | – | – | –
4 | COc1ccccc1OC [1,2-DIMETHOXYBENZENE] | 10 | 2 | inactive | – | inactive | inactive | inactive | – | – | – | – | 1.44 | – | – | 5 | 1 | – | – | – | –
5 | Oc1cccc(O)c1 [RESORCINOL] | 10 | 2 | inactive | – | inactive | inactive | inactive | – | – | – | – | 1.48 | – | – | 10 | 2 | – | – | – | –
6 | CCOc1cc(C=O)ccc1O [ETHYL VANILLIN] | 15 | 3 | – | – | – | – | – | 11 | 4.9 | 3 | 1 | 1.81 | 100 | 2.5 | 10 | 2 | 10 | 2 | – | –
7 | CCCCCCCOc1ccc(C=O)c(O)c1 | 5 | 1 | inactive | inactive | – | – | inactive | 6 | 2.6 | 3 | 1 | – | – | – | – | – | – | – | – | –
8 | COc1cccc(C=O)c1 | 15 | 3 | – | – | – | – | inactive | 25 | 11.2 | 9 | 3.2 | 1.15 | 100 | 2.5 | 5 | 1 | – | – | – | –
9 | COc1cc(C=O)ccc1O [VANILLIN] | 20 | 4 | – | – | – | – | – | 22 | 9.8 | 9 | 3.2 | 1.87 | 150 | 3.75 | 5 | 1 | 10 | 2 | – | –
10 | COc1ccc(C=O)c(OC)c1 | 25 | 5 | – | – | – | – | – | 22 | 9.8 | 9 | 3.2 | 0.97 | 100 | 2.5 | 10 | 2 | 8 | 1.6 | Active | 40
11 | Oc1ccccc1O [CATECHOL] | 25 | 5 | inactive | – | inactive | inactive | inactive | – | – | – | – | 1.48 | – | – | 15 | 3 | – | – | – | –
12 | Oc1ccc(O)cc1 [HYDROQUINONE] | 20 | 4 | inactive | – | inactive | inactive | inactive | – | – | – | – | 1.48 | – | – | 10 | 2 | – | – | – | –
13 | CCOc1ccc(C=O)c(O)c1 | 5 | 1 | inactive | inactive | inactive | inactive | inactive | – | – | – | – | – | – | – | – | – | – | – | – | –
14 | COc1ccc(O)c(C=O)c1 | 20 | 4 | – | – | – | – | – | 11 | 4.9 | 6 | 2.1 | 1.93 | 100 | 2.5 | 10 | 2 | 8 | 1.6 | – | –
15 | COc1ccc(/C=N/O)c(OC)c1 | 5 | 1 | – | inactive | – | – | inactive | 6 | 2.6 | 3 | 1 | – | 50 | 1.25 | – | – | – | – | – | –
16 | Oc1ccccc1 [PHENOL] | 10 | 2 | inactive | – | inactive | inactive | inactive | – | – | – | – | 1.76 | – | – | 5 | 1 | – | – | – | –
17 | COc1ccc(C=O)cc1 | 15 | 3 | inactive | – | inactive | inactive | inactive | – | – | – | – | 1.19 | – | – | 5 | 1 | – | – | – | –
18 | O=Cc1cccc(O)c1O | 40 | 8 | inactive | – | – | – | inactive | 5 | 2.1 | 3 | 1 | 1.19 | – | – | 10 | 2 | – | – | – | –
19 | COc1ccc(OC)cc1 [1,4-DIMETHOXYBENZENE] | 10 | 2 | inactive | – | inactive | inactive | inactive | – | – | – | – | 1.47 | – | – | 5 | 1 | – | – | – | –
20 | COc1ccccc1C=O [2-METHOXYBENZALDEHYDE] | 10 | 2 | – | – | – | – | inactive | 18 | 8 | 6 | 2.1 | 1.15 | 100 | 2.5 | 5 | 1 | – | – | – | –
21 | O=Cc1ccc(O)c(O)c1 [PROTOCATECHUALDEHYDE] | 60 | 12 | – | – | – | – | inactive | 6 | 2.6 | 3 | 1 | 2 | 50 | 1.25 | 20 | 4 | – | – | – | –
22 | COc1ccc(C=O)cc1O [ISOVANILLIN] | 10 | 2 | inactive | – | inactive | inactive | inactive | – | – | – | – | – | – | – | 10 | 2 | – | – | – | –
23 | O=Cc1cccc(O)c1 [3-HYDROXYBENZALDEHYDE] | 30 | 6 | – | – | – | – | – | – | 2.6 | – | 1 | – | – | 1.25 | 15 | 3 | – | – | – | –
24 | O=Cc1ccc(O)cc1 [4-HYDROXYBENZALDEHYDE] | 15 | 3 | – | – | – | – | inactive | 6 | 2.6 | 3 | 1 | 1.15 | 50 | 1.25 | 10 | 2 | – | – | – | –
25 | COc1ccccc1 [ANISOLE] | 10 | 2 | inactive | – | inactive | inactive | inactive | – | – | – | – | 1.44 | – | – | 5 | 1 | – | – | – | –
